Experimental data taken from patent publication US20250262201A1, “COMPOUNDS AND METHODS USEFUL FOR STABILIZING PHENYLALANINE HYDROXYLASE MUTATIONS” (Agios Pharmaceuticals, Inc., priority 2022, published 2025).

Each compound was assayed against T1, human PAH with the R408W mutation (Homo sapiens, UniProt P00439, R408W) (assay: Cell Based Phenylalanine Flux Assay). Conditions: A375 R408W cells, 24 hrs with compound, then 20 μM sepiapterin and 800 μM 13C9,15N-Phenylalanine for 4 hours; 13C-Tyrosine by LC-MS; average where tested multiple times.
T1 construct: expressed in transfected cells
T1 sequence (P00439 1-452 R408W): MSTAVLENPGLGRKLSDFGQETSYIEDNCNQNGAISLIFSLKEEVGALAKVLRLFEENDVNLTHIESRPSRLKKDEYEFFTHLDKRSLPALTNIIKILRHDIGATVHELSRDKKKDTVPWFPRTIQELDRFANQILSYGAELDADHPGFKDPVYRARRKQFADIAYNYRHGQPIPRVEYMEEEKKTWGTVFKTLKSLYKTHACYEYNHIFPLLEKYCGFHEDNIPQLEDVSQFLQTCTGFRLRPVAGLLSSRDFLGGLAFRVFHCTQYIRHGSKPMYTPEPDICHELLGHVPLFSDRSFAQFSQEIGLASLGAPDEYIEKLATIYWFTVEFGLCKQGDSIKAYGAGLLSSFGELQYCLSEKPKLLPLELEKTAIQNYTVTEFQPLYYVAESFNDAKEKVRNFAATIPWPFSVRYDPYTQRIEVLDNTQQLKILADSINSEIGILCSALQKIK
Set-up: scale not given here

AC50	SMILES
E, E	O=C(c1oc(-c2ncccn2)nc1C(F)F)N1CCc2[nH]cnc2C1c1ncc2ccccc2n1 (centres unmarked)
E, E	Cn1ccc(-c2nc(C(F)F)c(C(=O)N3CCc4[nH]cnc4C3c3ncc4ccccc4n3)o2)n1 (centres unmarked)
E, E	C[C@H]1CN(C(=O)c2ocnc2C(F)(F)F)[C@@H](c2cc3ccccc3cn2)c2nc[nH]c21 (single isomer, unassigned)

Same assay, conditions: A375 R408W cells, 24 hrs with compound, then 20 μM sepiapterin and 800 μM 13C9,15N-Phenylalanine for 4 hours; 13C-Tyrosine by LC-MS; average where tested multiple times; read-out: AC50

AC50 [µM]	SMILES
1 to 5	Cc1nc(NC2CC2)oc1C(=O)N1CCc2[nH]cnc2C1c1ccc2ccccc2n1 (centres unmarked)
> 5	CC(C)(O)c1ncc(C(=O)N2CCc3[nH]cnc3C2c2ccc3ccccc3n2)s1 (centres unmarked)
> 5	Cc1nc(C2CCN2)oc1C(=O)N1CCc2[nH]cnc2C1c1ccc2ccccc2n1 (centres unmarked)
1 to 5	O=C(C1CN(CC(F)(F)F)C1)N1CCc2[nH]cnc2C1c1ccc2ccccc2n1 (centres unmarked) [listing 1 of 2 here]
> 5	COC(=O)N1CC(C(=O)N2CCc3[nH]cnc3C2c2ccc3ccccc3n2)C1 (centres unmarked)
> 5	O=C(c1nnc(C2CC(F)(F)C2)o1)N1CCc2[nH]cnc2C1c1ccc2ccccc2n1 (centres unmarked)
> 5	O=C(C1CN(CC(F)(F)F)C1)N1CCc2[nH]cnc2C1c1ccc2ccccc2n1 (centres unmarked) [listing 2 of 2 here]

The remaining lines, values behind:

SMILES	AC50 [µM]
O=C(c1nnc(N2CCOCC2)o1)N1CCc2[nH]cnc2C1c1cn2ccccc2n1 (centres unmarked)	> 5
CC1CN(C(=O)c2nnc(N3CC(F)C3)o2)C(c2cc3ccccc3cn2)c2nc[nH]c21 (centres unmarked)	> 5
CC(C)(O)c1ncc(C(=O)N2CCc3[nH]cnc3C2c2cc3ccccc3cn2)o1 (single isomer, unassigned)	1 to 5
O=C(c1cnc(C(F)F)s1)N1CCc2[nH]cnc2C1c1cn2ccccc2n1 (centres unmarked)	1 to 5
C[C@@H](O)c1nnc(C(=O)N2CCc3[nH]cnc3[C@H]2c2cc3ccccc3nn2)o1 (single isomer, unassigned)	> 5
O=C(c1cnn(-c2ccccn2)c1Cl)N1CCc2[nH]cnc2C1c1ccc2ccccc2n1 (centres unmarked)	1 to 5
CC(C)(O)c1nc(C2CC2)c(C(=O)N2CCc3[nH]cnc3C2c2cn3ccccc3n2)o1 (centres unmarked)	1 to 5
O=C(CCc1ncco1)N1CCc2[nH]cnc2C1c1cn2ccccc2n1 (centres unmarked)	1 to 5
O=C(c1nnc(-c2ccccn2)o1)N1CCc2[nH]cnc2C1c1cc2ccccc2nn1 (centres unmarked)	1 to 5

Same assay, conditions: A375 cells expressing human R408W PAH; 24 hrs compound incubation; 13C-Tyrosine by LC-MS; average where tested multiple times; read-out: AC50

AC50 [µM]	SMILES
1 to 5	CC(O)c1nc(Br)c(C(=O)N2CCc3[nH]cnc3[C@@H]2c2ccc3ccccc3n2)o1 (single isomer, unassigned) [Example 132]
> 5	Cc1nc(C(C)(C)F)oc1C(=O)N1CCc2[nH]cnc2C1c1ccc2ccccc2n1 (stereo in doubt) [Example 21, (S)-(2-(2-fluoropropan-2-yl)-4-methyloxazol-5-yl)(4-(quinolin-2-yl)-6,7-dihydro-1H-imidazo[4,5-c]pyridin-5(4H)-yl)methanone]
< 0.5	O=C(c1ccnn1-c1ccccn1)N1CCc2[nH]cnc2C1c1ccc2ccccc2n1 (stereo in doubt) [Example 261, (R)-(1-(pyridin-2-yl)-1H-pyrazol-5-yl)(4-(quinolin-2-yl)-6,7-dihydro-1H-imidazo[4,5-c]pyridin-5(4H)-yl)methanone]
1 to 5	Cc1ccc(-c2nnc(C(=O)N3CCc4[nH]cnc4C3c3ccc4ccccc4n3)o2)nc1 (stereo in doubt) [Example 103, (S)-(5-(5-methylpyridin-2-yl)-1,3,4-oxadiazol-2-yl)(4-(quinolin-2-yl)-6,7-dihydro-1H-imidazo[4,5-c]pyridin-5(4H)-yl)methanone]
> 5	Cc1nc(-c2ccccn2)oc1C(=O)N1CCc2[nH]cnc2C1c1ccc2ccccc2n1 (stereo in doubt) [Example 32, (S)-(4-methyl-2-(pyridin-2-yl)oxazol-5-yl)(4-(quinolin-2-yl)-6,7-dihydro-1H-imidazo[4,5-c]pyridin-5(4H)-yl)methanone]
> 5	CC(C)(O)c1nnc(C(=O)N2CCc3[nH]cnc3C2c2ccc3ccccc3n2)o1 (stereo in doubt) [Example 27, (S)-(5-(2-hydroxypropan-2-yl)-1,3,4-oxadiazol-2-yl)(4-(quinolin-2-yl)-6,7-dihydro-1H-imidazo[4,5-c]pyridin-5(4H)-yl)methanone]
0.5 to 1	O=C(N1CCc2[nH]cnc2C1c1ccc2ccccc2n1)C(F)(F)C1(O)CCC1 (stereo in doubt) [Example 55, (R)-2,2-difluoro-2-(1-hydroxycyclobutyl)-1-(4-(quinolin-2-yl)-6,7-dihydro-1H-imidazo[4,5-c]pyridin-5(4H)-yl)ethanone]
> 5	Cn1cc(-c2nnc(C(=O)N3CCc4[nH]cnc4C3c3ccc4ccccc4n3)o2)cn1 (stereo in doubt) [Example 48, (S)-(5-(1-methyl-1H-pyrazol-4-yl)-1,3,4-oxadiazol-2-yl)(4-(quinolin-2-yl)-6,7-dihydro-1H-imidazo[4,5-c]pyridin-5(4H)-yl)methanone]
> 5	O=C(c1cnn(CC(F)(F)F)c1C(F)F)N1CCc2[nH]cnc2C1c1ccc2ccccc2n1 (stereo in doubt) [Example 126, (S)-(5-(difluoromethyl)-1-(2,2,2-trifluoroethyl)-1H-pyrazol-4-yl)(4-(quinolin-2-yl)-6,7-dihydro-1H-imidazo[4,5-c]pyridin-5(4H)-yl)methanone]
< 0.5	CC(C)(C)c1nnc(C(=O)N2CCc3[nH]cnc3[C@H]2c2ncc3ccccc3n2)o1 [Example 201, (S)-(5-(tert-butyl)-1,3,4-oxadiazol-2-yl)(4-(quinazolin-2-yl)-6,7-dihydro-1H-imidazo[4,5-c]pyridin-5(4H)-yl)methanone]
0.5 to 1	O=C(c1nnc(NC2CC2)o1)N1CCc2[nH]cnc2[C@H]1c1cc2ccccc2cn1 [Example 370, (R)-(5-(cyclopropylamino)-1,3,4-oxadiazol-2-yl)(4-(isoquinolin-3-yl)-6,7-dihydro-1H-imidazo[4,5-c]pyridin-5(4H)-yl)methanone]
0.5 to 1	O=C(c1cn[nH]c1Cl)N1CCc2[nH]cnc2C1c1ccc2ccccc2n1 (stereo in doubt) [Example 124, (R)-(5-chloro-1H-pyrazol-4-yl)(4-(quinolin-2-yl)-6,7-dihydro-1H-imidazo[4,5-c]pyridin-5(4H)-yl)methanone]

The next lines start with the compound.

SMILES	AC50 [µM]
C[C@H]1CN(C(=O)c2nnc(C(C)(C)C)o2)[C@@H](c2cc3ccccc3cn2)c2nc[nH]c21 [Example 427, (5-(tert-butyl)-1,3,4-oxadiazol-2-yl)((4S,7S)-4-(isoquinolin-3-yl)-7-methyl-6,7-dihydro-1H-imidazo[4,5-c]pyridin-5(4H)-yl)methanone]	1 to 5
O=C(c1cnn2ccc(Br)cc12)N1CCc2[nH]cnc2[C@H]1c1cc2ccccc2cn1 [Example 356, (R)-(5-bromopyrazolo[1,5-a]pyridin-3-yl)(4-(isoquinolin-3-yl)-6,7-dihydro-1H-imidazo[4,5-c]pyridin-5(4H)-yl)methanone]	< 0.5
O=C(c1nnc(-c2ccncn2)o1)N1CCc2[nH]cnc2[C@H]1c1cc2ccccc2cn1 [Example 471, (R)-(4-(isoquinolin-3-yl)-6,7-dihydro-1H-imidazo[4,5-c]pyridin-5(4H)-yl)(5-(pyrimidin-4-yl)-1,3,4-oxadiazol-2-yl)methanone]	< 0.5
O=C(c1cnc(-c2ccccn2)s1)N1CCc2[nH]cnc2C1c1ccc2ccccc2n1 (stereo in doubt) [Example 1, (R)-(2-(pyridin-2-yl)thiazol-5-yl)(4-(quinolin-2-yl)-6,7-dihydro-1H-imidazo[4,5-c]pyridin-5(4H)-yl)methanone]	< 0.5
CC(C)(F)c1ccc2c(C(=O)N3CCc4[nH]cnc4[C@H]3c3cc4ccccc4cn3)cnn2c1 [Example 344, (R)-(6-(2-fluoropropan-2-yl)pyrazolo[1,5-a]pyridin-3-yl)(4-(isoquinolin-3-yl)-6,7-dihydro-1H-imidazo[4,5-c]pyridin-5(4H)-yl)methanone]	0.5 to 1
Cn1ccc(-c2ccc3c(C(=O)N4CCc5[nH]cnc5[C@H]4c4cc5ccccc5cn4)cnn3c2)n1 [Example 481, (R)-(4-(isoquinolin-3-yl)-6,7-dihydro-1H-imidazo[4,5-c]pyridin-5(4H)-yl)(6-(1-methyl-1H-pyrazol-3-yl)pyrazolo[1,5-a]pyridin-3-yl)methanone]	< 0.5
COc1ccc(-c2nnc(C(=O)N3CCc4[nH]cnc4[C@H]3c3cc4ccccc4cn3)o2)nc1 [Example 438, (R)-(4-(isoquinolin-3-yl)-6,7-dihydro-1H-imidazo[4,5-c]pyridin-5(4H)-yl)(5-(5-methoxypyridin-2-yl)-1,3,4-oxadiazol-2-yl)methanone]	< 0.5
COCc1ccc2c(C(=O)N3CCc4[nH]cnc4[C@H]3c3ncc4ccccc4n3)cnn2c1 [Example 153]	0.5 to 1
COCc1ncc(C(=O)N2CCc3[nH]cnc3[C@H]2c2cc3ccccc3cn2)o1 [Example 394, (R)-(4-(isoquinolin-3-yl)-6,7-dihydro-1H-imidazo[4,5-c]pyridin-5(4H)-yl)(2-(methoxymethyl)oxazol-5-yl)methanone]	0.5 to 1
O=C(C1CN(CC(F)(F)F)C1)N1CCc2[nH]cnc2[C@H]1c1cc2ccccc2cn1 [Example 420, (R)-(4-(isoquinolin-3-yl)-6,7-dihydro-1H-imidazo[4,5-c]pyridin-5(4H)-yl)(1-(2,2,2-trifluoroethyl)azetidin-3-yl)methanone]	1 to 5
